This is an account of results in patent US11045485B2, “Glycomimetic inhibitors of PA-IL and PA-IIL lectins” (GlycoMimetics, Inc., priority 2016, dated 2021).

Each structure is given as a SMILES string. Where “and” joins values, the source holds several entries; their conditions need not be identical. Equal entries are not always repeated.

One data set deals with T1, PA-IL (Pseudomonas aeruginosa, UniProt Q05097).
T1 construct: purchased Sigma-Aldrich, St. Louis, Mo
Description: Assay for PA-IL antagonist activity (competition with α-galactose-PAA-biotin/streptavidin-HRP on coated plate). The class given is binding. Here is the method:
(§1) Wells of a microtiter plate (plate 1) are coated with PA-IL (Sigma-Aldrich, St. Louis, Mo.) by incubation for 2 hrs at 37° C. The wells are then blocked for 2 hrs by the addition of 1% bovine serum albumin (BSA) diluted in TBS-Ca (50 mM TrisHCl, 150 mM NaCl, 2 mM CaCl2) pH 7.4) mixed 1:1 v/v with Stabilcoat (Surmodics, Eden Prairie, Minn.). In a second low-binding round-bottom microtiter plate (plate 2), test antagonists are serial diluted in 1% BSA in TBS-Ca/Stabilcoat (60 μl/well). Preformed conjugates of α-galactose-PAA-biotin (GlycoTech Corp, Gaithersburg, Md.) mixed with streptavidin-HRP (KPL Labs, Gaithersburg, Md.) are added to each well of plate 2 (60 μl/well of 2 μg/ml). Plate 1 is then washed with TBS-Ca and 100 μl/well are transferred from plate 2 to plate 1. After incubation at room temperature for 2 hrs, plate 1 is washed and 100 μl of TMB reagent (KPL Labs, Gaithersburg, Md.) is added to each well. After incubation for 5 minutes at room temperature, the reaction is stopped by adding 100 μl/well of 1M H3PO4 and the absorbance of light at 450 nm is determined by a microtiter plate reader. Absorbance is plotted as a function of antagonist concentration and the concentration at which 50% maximal absorbance (IC50) is obtained is determined from the plot.

The target in the next data set is T2, PA-IIL (Pseudomonas aeruginosa, UniProt Q9HYN5).
T2 construct: Dr. Wimmerova, Masaryk University, Brno, Czech Republic (academic supplier)
T2 sequence (Q9HYN5 entry or part of it): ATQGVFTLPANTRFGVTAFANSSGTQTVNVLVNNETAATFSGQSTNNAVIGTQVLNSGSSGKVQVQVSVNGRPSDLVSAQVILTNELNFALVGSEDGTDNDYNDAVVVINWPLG
The experiment in a line: Assay for PA-IIL antagonist activity (competition with fucose-PAA-biotin/streptavidin-HRP on coated plate). The class given is binding. Here is the method:
as §1, with “PA-IIL (Dr. Wimmerova, Masaryk University, Brno, Czech Republic)” for “PA-IL (Sigma-Aldrich, St. Louis, Mo.)”, “CaCl2” for “CaCl2)”, “fucose-PAA-biotin” for “α-galactose-PAA-biotin”

Data set [1] relates to Pseudomonas aeruginosa strain PaO. Description: Acute lung injury model, compound co-administered with bacteria. Type of data set: in vivo, male BalB/c mice. Here is the method: Cohorts of male BalB/c mice (n=5/group) were infected intranasally with either a low (1-2×10^6 CFU) or a high (1-2×10^7 CFU) inoculum of Pseudomonas aeruginosa strain PaO, in combination with saline or multiple dose levels ([…], corresponding to 10, 25 and 50 mg/kg, respectively) of glycomimetic compound (I) or compound A. The bacteria were coadministered with glycomimetic compound (I) or compound A directly into the lungs of each mouse by intratracheal (i.t.) injection via the oropharynx using a 24-gauge feeding needle (total volume of 0.05 mL).
The animals were observed daily beginning 24 hours post infection and cumulative clinical (disease) scores were determined for each mouse (FIGS. 4 and 6). Parameters assessed were: (a) for appearance (smooth→bristly); (b) body temperature (normal→cold); (c) movement (moving→prostate); and (d) weight loss. Clinical scoring ranged from 0 (normal, uninfected appearance) to 10 (severely compromised).
Animals were observed daily for morbidity/mortality and day of death recorded. Kaplan-Meier analysis was used to estimate survival function from life-span data and statistical values derived from a log rank test.

Data set [2] in a line: Uninfected mice treated with compound (non-specific toxicity control). Type of data set: in vivo. The note with it: 40 mM.
The next data set concerns Pseudomonas aeruginosa. Description: Acute lung injury model, treatment with tobramycin. Type of data set: in vivo, mice. Here is the method:
Mice were co-administered 2×10^7 CFU Pseudomonas aeruginosa with or without compound A or glycomimetic compound (I) in combination with 12 mg/kg tobramycin. The tobramycin was administered intraperitoneally 6 hours after bacterial challenge.

Data set [3] deals with Pseudomonas aeruginosa PAO1 strain. Description: Acute P. aeruginosa-induced infection in mouse, monotherapy at different inoculation times. Type of data set: in vivo, male C57BL6/J mice. Here is the method:
(§2) Pseudomonas aeruginosa PAO1 strain is a sequenced, well-characterized strain used as reference strain. Bacteria were grown overnight at 37° C. in Lysogeny Broth Lennox (LB) (BD Europe, Le pont de Claix, France) under orbital shaking (300 rpm) from frozen stock. A secondary culture was performed during 2 hours and before harvesting the bacteria by centrifugation (2000 g, 5 min), and two washings with sterile phosphate-buffered saline (PBS). Turbidity was then approximated by measurement of optical density at A600 (Ultrospec 10 Cell Density Meter, General Electric, Fairfield, Conn.) and verified by serial dilution and plating on LB agar Plates.
(§3) Vehicle was phosphate buffered saline, and test solutions are Glycomimetic Compound (I) 40 mM in PBS, and Compound A 40 mM in PBS. Test articles were provided by GlycoMimetics and stored at −20° C. Tobramycin (1 g) was provided by Laboratoire EREMPHARMA (25 rue Greffulhe—92300 Levallois) and stored at (+4° C.).
(§4) Male C57BL6/J mice (8 weeks old) purchased from Janvier Labs (Route du Genest, 53940 Le Genest-Saint-Isle) were housed a pathogen-free unit of the Lille University Animal Care Facility and allowed food and water ad lib.
(§5) Mice were anesthetized briefly with inhaled sevoflurane (Sevorane™, Abbott, Queensborough, UK), allowing maintenance of spontaneous breathing after which 50 μL of the bacterial solution were administered intranasally representing a total of 1.10^6 CFU/mouse (except for tobramycin study conducted with lethal inoculate of […]). Control mice receive 50 μL of PBS. All mice were sacrificed at 24 h (except for survival studies, mice were monitored on weight and clinical score 96 h post bacterial infection). Glycomimetic Compound (I) or Compound A were administered IN with the inoculum or post-infection (see FIG. 8 and FIG. 12). In appropriate groups, mice were treated 24 h after infection with 12 mg/kg tobramycin administered intraperitoneally.
(§6) For each group, treatment effect was measured with the disease score and daily mortality rate post challenge. The evolution of the disease score assessing the clinical appearance of the animals was evaluated on 4 items scored from 0 to 10 summarized in Table 1 (body temperature, appearance of the bristle, behavior and weight loss; 0: healthy mice, 10 moribund mice). All disease score assessments were performed by two experimenters throughout the study.
(§7) Statistical analysis was performed using Prism 5 software (Graph-Pad Software, San Diego Calif.). Values are expressed as mean±SEM. Comparison groups were analysed with the nonparametric Mann-Whitney test. Survival curves were analysed using Log-rank (Mantel-Cox) test. *p<0.05; ** p<0.01; *** p<0.001 Results are mean+/−Standard error.
Mice, 8 weeks old C57Bl/6J male, received intranasally 1.10^7 CFU of PaO1 and Glycomimetic Compound (I) or Compound A at different time points, as described in FIG. 8.
We analyzed weight loss, clinical disease score and mortality. Fourteen independent cohorts of 5 mice each were tested. Each cohort included an equal representation of testing conditions. All stage 1 cohorts were tested over 4 days. At the conclusion of Stage 1, there was a total of 10 mice for each of the above 7 treatment groups.

The test system is the same in data set [4]. Description: Acute P. aeruginosa-induced infection in mouse, association with tobramycin. Type of data set: in vivo, male C57BL6/J mice. Here is the method: as §2, §3, §4, §5, §6, §7
Mice, 8 weeks old C57Bl/6J male, received intranasally 2.10^7 CFU of PAO1 and Glycomimetic Compound (I) or Compound A at different time points with or without an intraperitoneal injection of tobramycin 12 mg/kg (FIG. 12).

Setting [5] is: 2.10^7 CFU PAO1, agent alone, H4 administration.

T1 sequence (Q05097 whole entry): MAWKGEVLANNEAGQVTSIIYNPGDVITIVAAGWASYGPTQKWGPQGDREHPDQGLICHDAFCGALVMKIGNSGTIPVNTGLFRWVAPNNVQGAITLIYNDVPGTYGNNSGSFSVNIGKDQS

For the compound `CC1CCC[C@@H](O[C@@H]2OC(CO)[C@H](O)C(O[C@H]3OC(CO)[C@H](O)C(O)C3O)C2O)C1OC1O[C@@H](C)C(O)C(O)[C@@H]1O` (stereo partly drawn) [Glycomimetic Compound (I)], the IC50 is 7.2 µM on PA-IL and 0.44 µM on PA-IIL. The survival came out at 60% in data set [1] (high inoculum, co-administered 20 mM, at 96 hr); 100% in data set [1] (high inoculum, co-administered 40 mM, at 96 hr); 100% in data set [1] (low inoculum 2×10^6 CFU, co-administered 40 mM compound, i.t.); 40% in the data set on Pseudomonas aeruginosa (8 mM in combination with 12 mg/kg tobramycin); 100% with Pseudomonas aeruginosa (20 mM in combination with 12 mg/kg tobramycin); 100% in the data set with Pseudomonas aeruginosa (40 mM in combination with 12 mg/kg tobramycin). Further, the survival in data set [3] (1.10^7 CFU PaO1, compound administered after 4 hours of infection) is 40%; in data set [3] (1.10^7 CFU PaO1, compound administered after 6 hours of infection), 25% and 20%; in data set [3] (1.10^7 CFU PaO1, compound administered after one hour of infection), 54.5%; in data set [3] (1.10^7 CFU PaO1, compound administered with the bacteria) it was 90%; in data set [4] (setting [5]), 30%; in data set [4] (2.10^7 CFU PAO1, association with tobramycin 12 mg/kg i.p., H4 administration), 90%. In data set [4] (2.10^7 CFU PAO1, association with tobramycin 12 mg/kg i.p., at 6 h), the survival is reported as 50%. Besides, in data set [2], the morbidity or mortality entry is given as “no morbidity or mortality was observed”. Further, the survival benefit result with Pseudomonas aeruginosa (8, 20 and 40 mM co-administered with bacteria, plus 12 mg/kg tobramycin i.p. 6 hours after challenge) is recorded as “significantly increased”. In data set [3] (monotherapy, FIGS. 10 and 11), the “effect on weight and score disease” value is “superior to Compound A”. In data set [4] (with tobramycin, at 4 hours), the score disease result is listed as “lower score”.
In the case of `NC[C@H]1O[C@H](O[C@H]2[C@H](O)[C@@H](O[C@H]3O[C@H](CO)[C@@H](O)[C@H](N)[C@H]3O)[C@H](N)C[C@@H]2N)[C@H](N)C[C@@H]1O` [tobramycin, reference compound], the survival in data set [4] (setting [5]) amounted to 70%; in data set [4] (2.10^7 CFU PAO1, agent alone, at 6 h), 10%.

A word on the IC50: it is the concentration that gives 50% inhibition. Higher therefore signals weaker potency.
